Reference: US7084141B2, “Inhibitors of macrophase migration inhibitory factor and methods for identifying the same” (Avanir Pharmaceuticals, priority 2001, dated 2006)

Biological target: T1, MIF produced by THP-1 cells (Homo sapiens, UniProt P14174)
T1 construct: a test cell may express the MIF naturally (e.g., THP-1 cells); endogenous in cells; host or cells: THP-1 cells stimulated with LPS
T1 sequence (P14174 2-115 limits assumed): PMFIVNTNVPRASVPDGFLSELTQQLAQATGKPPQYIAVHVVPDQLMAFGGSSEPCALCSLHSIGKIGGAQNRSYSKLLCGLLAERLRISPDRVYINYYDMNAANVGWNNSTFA
Experiment: ELISA of immunoreactive MIF from LPS stimulated THP-1 cells treated with compound
Assay type: cell-based
Conditions: LPS stimulated THP-1 cells, incubated overnight; read-out: ED50, inhibition of the ability of the antibody to recognize MIF (ELISA)
Method: Alternatively, ELISA may be preferred to detect and quantify the amount of MIF in cell supernatants. ELISA is preferred for detection in high throughput screening. Briefly, 96-well plates are coated with an anti-MIF antibody or anti-tag antibody, washed, and blocked with 2% BSA. Cell supernatant is then added to the wells. Following incubation and washing, a second antibody (e.g., to MIF) is added. The second antibody may be coupled to a label or detecting reagent, such as an enzyme or to biotin. Following further incubation, a developing reagent is added and the amount of MIF determined using an ELISA plate reader. The developing reagent is a substrate for the enzyme coupled to the second antibody (typically an anti-isotype antibody) or for the enzyme coupled to streptavidin. Suitable enzymes are well known in the art and include horseradish peroxidase, which acts upon a substrate (e.g., ABTS) resulting in a colorimetric reaction. It is recognized that rather than using a second antibody coupled to an enzyme, the anti-MIF antibody may be directly coupled to the horseradish peroxidase, or other equivalent detection reagent. If desired, cell supernatants may be concentrated to raise the detection level. Further, detection methods, such as ELISA and the like may be employed to monitor intracellular as well as extracellular levels of MIF. When intracellular levels are desired, a cell lysate is preferred. When extracellular levels are desired, media can be screened.
In another experiment (FIG. 2), varying concentrations of five different inhibitor analogs were added to LPS stimulated THP-1 cells and allowed to incubate overnight. The following day the amount of immunoreactive MIF detected was evaluated by ELISA. Compound 7e inhibited the ability of the antibody to recognize MIF in a dose dependent fashion with an ED50 of 2 μM, similar to the response obtained with analogs compound 7b and compound 7d.
In a further experiment (FIG. 3), the ability of compound 7e to decrease the immunoreactivity of MIF produced by THP-1 cells was determined. THP-1 cells were treated with 10 μg/ml of LPS and 10 μM of compound 7e was added at various times post-LPS stimulation and immunoreactivity monitored with an anti-MIF monoclonal. […] Thus, this experiment measures the activity of compounds or buffer alone controls on MIF detection when the compounds are initially added at various times to cell cultures and then the corresponding conditioned media samples are processed in a time dependent fashion thereafter.

## Cn1c(=O)c([N+](=O)[O-])c(N2CCN(C(=O)c3ccccc3)CC2)c2ccccc21 [compound 7b]
  EC50: ~2000 nM

## CCOC(=O)c1c(N2CCN(C(=O)c3ccccc3)CC2)c2ccccc2n(C)c1=O [compound 7d]
  EC50: ~2000 nM
